Literature values, collected in patent publication US6420552B1, “Syntheses of 4-alkyl chromogenic glycosides and 7-alkyl chromogenic glycosides of N-acetylneuraminic acids” (priority 1999, dated 2002).

What was measured:
[1] = test system: neuraminidase activity of influenza types A and B; conditions: substrate activity, result in words
[2] = target: neuraminidase from Vibrio cholerae (Vibrio cholerae serotype O1, UniProt P0C6E9); conditions: 4-methylumbelliferyl α ketosides
[3] = test system: neuraminidase activity of parainfluenza types 1 and 2; conditions: substrate activity, result in words
[4] = test system: respiratory syncytial adenovirus; conditions: substrate activity, result in words

Chain of neuraminidase from Vibrio cholerae (P0C6E9 25-781): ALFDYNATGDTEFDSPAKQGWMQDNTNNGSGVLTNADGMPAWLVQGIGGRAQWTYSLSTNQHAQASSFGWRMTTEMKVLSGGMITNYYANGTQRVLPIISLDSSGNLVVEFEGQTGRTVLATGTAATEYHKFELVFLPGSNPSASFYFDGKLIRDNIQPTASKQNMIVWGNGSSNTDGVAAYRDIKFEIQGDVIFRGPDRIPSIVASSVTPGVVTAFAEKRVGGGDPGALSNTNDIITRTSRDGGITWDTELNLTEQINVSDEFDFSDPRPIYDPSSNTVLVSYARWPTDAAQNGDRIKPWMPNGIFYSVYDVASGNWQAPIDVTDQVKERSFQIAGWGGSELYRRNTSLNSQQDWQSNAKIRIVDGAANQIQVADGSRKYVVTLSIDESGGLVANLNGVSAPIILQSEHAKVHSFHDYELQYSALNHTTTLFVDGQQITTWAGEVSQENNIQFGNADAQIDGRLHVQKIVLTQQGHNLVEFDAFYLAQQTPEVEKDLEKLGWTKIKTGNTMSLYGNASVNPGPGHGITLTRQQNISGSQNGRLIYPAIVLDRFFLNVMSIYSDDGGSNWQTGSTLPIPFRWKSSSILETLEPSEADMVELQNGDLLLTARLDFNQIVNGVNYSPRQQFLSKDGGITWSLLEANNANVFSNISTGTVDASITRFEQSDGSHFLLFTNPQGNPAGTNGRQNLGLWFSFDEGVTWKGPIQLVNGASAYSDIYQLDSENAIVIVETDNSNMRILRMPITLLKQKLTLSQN

Row | Molecule | hydrolysis / colour development by neuraminidase activity of influenza types A and B [1] | glycosidic hydrolysis by neuraminidase from Vibrio cholerae [2] | hydrolysis / colour development by neuraminidase activity of parainfluenza types 1 and 2 [3] | hydrolysis by respiratory syncytial adenovirus [4]
1 | COC1CC(Oc2c[nH]c3ccc(Br)cc23)(C(=O)O)OC(C(OC)C(O)CO)C1NC(C)=O (stereo not shown) [5-bromo-3-indolyl 4,7-di-O-methyl Neu5Ac ketoside] | selectively hydrolyzed |  |  | 
2 | CC(=O)N[C@@H]1CCC(O)(C(=O)O)O[C@H]1C[C@H](O)CO (stereo partly shown) [4,7-dideoxy Neu5Ac] |  | significantly slowed |  | 
3 | 5-bromo-3-indolyl 4-O-methyl Neu5Ac ketoside | acted upon |  | acted upon | not at all
4 | CC(=O)N[C@H]1[C@H](C[C@H](O)CO)OC(O)(C(=O)O)C[C@@H]1O (stereo partly shown) [7-deoxy Neu5Ac] |  | significantly slowed |  | 
5 | CC(=O)N[C@H]1[C@H]([C@@H](O)[C@@H](O)CO)OC(O)(C(=O)O)C[C@@H]1O (stereo partly drawn) [7,8-(bis)epi Neu5Ac] |  | significantly slowed |  | 
